From US20050014685A1, “New compound” (FUJISAWA PHARMACEUTICAL CO., LTD., priority 2003, published 2005)
*1 amine or outer side, *2 acyl side, *3 side chain or, on linkers, in order; H or OH if unused. Where a SMILES comes first, the peptide text is derived from it. Bridges are numbered along the chain shown (N, C = ends). [ ]: non-standard residue; d: D form. The star is where a group is joined. X2 = C[C@H]1CC[C@@H](N2CCN(c3ccc(-c4nnc(-c5ccc(C(=O)*)cc5)s4)cc3)CC2)CC1; X1 = O=C(c1ccc(-c2nnc(-c3ccc(N4CCN(C5CCCCC5)CC4)cc3)s2)cc1)*; Orn(3R-OH,Nδ-CH(CH2OH)2) = N[C@H](C(=O)O)[C@H](O)CCNC(CO)CO; hTyr(βR-OH,3-OMe) = COc1cc(C[C@@H](O)[C@H](N)C(=O)O)ccc1O; Orn(4R-OH) = O=C([C@H](C[C@@H](O)CN[*:3])N[*:1])[*:2]; Pro(3S-OH,4S-Me) = C[C@H]1CN[C@H](C(=O)O)[C@H]1O; Orn(3R-OH) = NCC[C@@H](O)[C@H](N)C(=O)O; Hyp = O=C(O)[C@@H]1C[C@@H](O)CN1

Each molecule was assayed on Candida albicans FP-633. Settings: FP-633, pH 7.3.
Type: cell-based
Procedure: In vitro antimicrobial activity of the object compound of Examples 1, 7, 12 and 19 disclosed later was determined by MICs in mouse serum as described below.
The MIC5 in mouse serum were determined by the microdilution method using ICR mouse serum buffered with 20 mM HEPES buffer (pH 7.3) as a test medium. Inoculum suspension of 10^6 cells/ml were prepared by a hemocytometric procedure and diluted to obtain an inoculum size of approximately 1.0×10^3 cells/ml. Microplates were incubated at 37° C. for […] in 5% CO2. The MICs was defined as the lowest concentrations at which no visible growth was observed.

MIC, <0.2 mg/L:
COc1cc(C[C@@H](O)[C@@H]2NC(=O)[C@@H]3C[C@@H](O)CN3C(=O)[C@H]([C@@H](C)O)NC(=O)[C@@H](NC(=O)c3ccc(-c4nnc(-c5ccc(N6CCN([C@H]7CC[C@@H](C)CC7)CC6)cc5)s4)cc3)C[C@@H](O)CNC(=O)[C@@H]3[C@@H](O)[C@@H](C)CN3C(=O)[C@H]([C@H](O)CCN)NC2=O)ccc1O [Example 1] (X2-[Orn(4R-OH)]T[Hyp][hTyr(βR-OH,3-OMe)][Orn(3R-OH)][Pro(3S-OH,4S-Me)]; lactam 1-C), COc1cc(C[C@@H](O)[C@@H]2NC(=O)[C@@H]3C[C@@H](O)CN3C(=O)[C@H]([C@@H](C)O)NC(=O)[C@@H](NC(=O)c3ccc(-c4nnc(-c5ccc(N6CCN(C7CCCCC7)CC6)cc5)s4)cc3)C[C@@H](O)CNC(=O)[C@@H]3[C@@H](O)[C@@H](C)CN3C(=O)[C@H]([C@H](O)CCN)NC2=O)ccc1O [Example 7] (X1-[Orn(4R-OH)]T[Hyp][hTyr(βR-OH,3-OMe)][Orn(3R-OH)][Pro(3S-OH,4S-Me)]; lactam 1-C), COc1cc(C[C@@H](O)[C@@H]2NC(=O)[C@@H]3C[C@@H](O)CN3C(=O)[C@H]([C@@H](C)O)NC(=O)[C@@H](NC(=O)c3ccc(-c4nnc(-c5ccc(N6CCN([C@H]7CC[C@@H](C)CC7)CC6)cc5)s4)cc3)C[C@@H](O)CNC(=O)[C@@H]3[C@@H](O)[C@@H](C)CN3C(=O)[C@H]([C@H](O)CCNC(CO)CO)NC2=O)ccc1O [Example 19] (X2-[Orn(4R-OH)]T[Hyp][hTyr(βR-OH,3-OMe)][Orn(3R-OH,Nδ-CH(CH2OH)2)][Pro(3S-OH,4S-Me)]; lactam 1-C)
